Values of other authors in patent US4886800A, “Substituted cinnoline derivatives as CNS depressants” (ICI Americas Inc., priority 1985, dated 1989).

Test system: specific [3H]flunitrazepam binding, lysed mitochondrial-synaptosomal (P2) fraction of cerebral cortex
Settings: reference behaviour stated in the description of the test

Structure (SMILES) | effect on flunitrazepam binding
CCCCNc1c(C(=O)OCC)cnc2c1cnn2CC [cartazolate] | enchancement of the binding
CCCCNc1c(C(=O)OCC)c(C)nc2c1cnn2CC [tracazolate] | enchancement of the binding
